Test results reported in patent US20240132450A1, “MODULATORS OF G PROTEIN-COUPLED RECEPTOR 88” (ACADIA Pharmaceuticals Inc., priority 2020, published 2024).

Key:
hGPR88 receptor = hGPR88 receptor (Homo sapiens, UniProt Q9GZN0); test: hGPR88-HEK cAMP accumulation assay; conditions: GRP88 agonist activity (EC50), HEK-293 cells expressing human recombinant GPR88, forskolin 200 nM, High/Medium/Low bands
[1] = molecular target: T1, dopamine uptake transporter (rat DAT) (Rattus norvegicus, UniProt P23977); test: Dopamine transporter uptake assay; type: biochemical; conditions: rat striatum synaptosomes, [3H]dopamine
T1 construct: is determined in rat striatum synaptosomes following [^3H]dopamine scintillation counting; from tissue; host or cells: rat striatum synaptosomes
T1 sequence (P23977 whole entry): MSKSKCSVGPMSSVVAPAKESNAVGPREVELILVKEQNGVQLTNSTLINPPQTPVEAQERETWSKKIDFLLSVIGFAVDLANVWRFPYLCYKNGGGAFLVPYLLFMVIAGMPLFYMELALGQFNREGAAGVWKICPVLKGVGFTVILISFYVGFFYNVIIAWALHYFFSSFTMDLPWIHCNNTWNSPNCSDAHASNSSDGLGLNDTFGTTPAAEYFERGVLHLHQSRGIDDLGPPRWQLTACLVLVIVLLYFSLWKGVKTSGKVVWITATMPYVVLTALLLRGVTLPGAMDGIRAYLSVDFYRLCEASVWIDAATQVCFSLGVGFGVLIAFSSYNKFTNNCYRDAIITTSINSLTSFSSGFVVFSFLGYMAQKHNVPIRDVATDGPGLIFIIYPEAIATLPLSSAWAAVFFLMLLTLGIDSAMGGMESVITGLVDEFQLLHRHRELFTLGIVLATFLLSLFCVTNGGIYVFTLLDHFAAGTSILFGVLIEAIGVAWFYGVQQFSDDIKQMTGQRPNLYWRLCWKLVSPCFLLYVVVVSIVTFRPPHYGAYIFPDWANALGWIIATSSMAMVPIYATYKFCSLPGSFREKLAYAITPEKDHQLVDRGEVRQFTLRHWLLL

[2] = Hepatocyte stability (mouse); type: in vitro ADME; conditions: mouse, cryopreserved pooled hepatocytes in suspension, test compound 3 μM, 60 min, read-out: Mouse heps Clint
Protocol: (iii) Hepatocyte Stability (Human, Mouse, Rat or Dog)
Test compound (3 μM) is incubated with cryopreserved hepatocytes in suspension. Samples are removed at 6 time points over the course of a 60 min experiment and test compound is analysed by LC-MS/MS. An intrinsic clearance value (CLint) with standard error and half-life (t %) are calculated. Cryopreserved pooled hepatocytes are stored in liquid nitrogen prior to use. […] The final incubation volume is 500 μL. A control incubation is included for each compound tested where lysed cells are added instead of viable cells. Two control compounds are included with each species.
The reactions are stopped by transferring 50 μL of incubate to 100 μL methanol containing internal standard at the appropriate time points. The control (lysed cells) is incubated for 60 min only. The termination plates are centrifuged at 2500 rpm at 4° C. for 30 min to precipitate the protein. Following protein precipitation, the sample supernatants are combined in cassettes of up to 4 compounds and analysed using generic LC-MS/MS conditions. From a plot of In peak area ratio (compound peak area/internal standard peak area) against time, the gradient of the line is determined. Subsequently, half-life (t %) and intrinsic clearance (CLint) are calculated using the equations below: […]

Chain of hGPR88 receptor (Q9GZN0 whole entry): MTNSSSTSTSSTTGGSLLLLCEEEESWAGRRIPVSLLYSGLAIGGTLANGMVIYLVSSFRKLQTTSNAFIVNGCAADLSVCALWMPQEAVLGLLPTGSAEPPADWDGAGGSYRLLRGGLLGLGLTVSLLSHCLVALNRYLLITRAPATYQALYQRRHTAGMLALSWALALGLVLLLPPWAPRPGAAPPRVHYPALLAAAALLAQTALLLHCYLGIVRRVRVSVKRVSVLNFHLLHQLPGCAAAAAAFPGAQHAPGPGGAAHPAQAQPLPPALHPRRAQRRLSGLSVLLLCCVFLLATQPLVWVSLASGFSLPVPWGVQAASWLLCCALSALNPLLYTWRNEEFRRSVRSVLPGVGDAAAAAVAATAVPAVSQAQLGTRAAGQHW

EC50 (hGPR88 receptor) | Inhibition of dopamine uptake transporter (% inhibition at 10 μM compound) [1] | hepatocyte CLint at 3 μM [2] | Structure (SMILES)
< 1000 nM | 3 % inhibition | 54 µL/min/1e6 cells | COCc1ccc(-c2ccc(NC(=O)C(C)(C)Oc3ccc(F)cc3)cc2)cc1 [Example 2, 2-(4-fluorophenoxy)-N-(4′-(methoxymethyl)-[1,1′-biphenyl]-4-yl)-2-methylpropanamide]
< 1000 nM | 7 % inhibition | 70 µL/min/1e6 cells | CCOc1ccc(-c2ccc(NC(=O)C(C)(C)Oc3ccc(F)cc3)cc2)cn1 [Example 26, N-(4-(6-ethoxypyridin-3-yl)phenyl)-2-(4-fluorophenoxy)-2-methylpropanamide]
< 1000 nM | 52 % inhibition | 76 µL/min/1e6 cells | COCc1ccc(-c2ccc3c(c2)CCCN3C(=O)C(C)(C)Oc2ccc(F)cc2)cc1 [Example 31, 2-(4-fluorophenoxy)-1-(6-(4-(methoxymethyl)phenyl)-3,4-dihydroquinolin-1(2H)-yl)-2-methylpropan-1-one]
